Like-named read-outs stand apart in the source and are kept apart here. Marks after values point to notes of the source that are not given here. Ends that are not written are not given here.
What was measured:
Caco-2 cells = assay type: cell-based, human; details: for Viable Cells (%): SD; for inhibition of Caco-2 proliferation: human, Caco-2, 72 h
Procedure: The human CRC cell line Caco-2 was obtained from American Type Cell Collection (ATCC, Manassas, VA, USA) and cultured in MEM medium supplemented with 20% FBS, 1% penicillin, and 1% streptomycin. Cells were maintained at 37 °C in a humidified incubator containing 5% CO2 and 95% air. The medium was changed every 24 h. All cells were assayed within 5–15 passages. Utilizing the CCK-8 kit (Biorigin, Beijing, China), the toxicity test was first performed. Caco-2 cells (100 µL) were incubated in the 96-well plate (1 × 10^5 cells/well) for 24 h, then the original medium was replaced with fresh medium containing different concentrations of QP (1–8 g/L), QPH (1–8 g/L), fraction MW < 5 kDa (1–8 g/L), fraction MW > 5 kDa (1–8 g/L), and selected peptides ranging from 0 to 2 g/L. After 24 h co-cultivation, the medium was discarded and washed with PBS 2 times, and a fresh medium with 10% CCK-8 reagent was added to each cell. Another 1 h later, the absorbance (OD value) was determined by an enzyme-labeling instrument at a wavelength of 450 nm. Experiments were performed in triplicate with at least three replicates per concentration, and results were expressed as percentage of negative control (non-treated Caco-2 cells).
For the proliferation experiments, Caco-2 cells were seeded into 96-well plates at a density of 2.5 × 10^4 per well for 24 h, the incubation was continued for 72 h. After that, the subsequent washing and CCK-8 reaction process were the same as performed in the toxicity test. Finally, the absorbance was also detected at 450 nm. Analyses were performed in triplicate with at least three replicates per concentration, and results were also shown as the percentage of non-treated Caco-2 cells.

HDAC1 = biological target: T1, HDAC1 (Homo sapiens, UniProt Q13547); assay: HDAC1 inhibitory activity assay (inhibitor screening kit, fluorescence); assay type: biochemical; details: for HDAC1 IC50 attained or not, in words: peptide 0.05–2 g/L tested; for IC50: peptide 0.05–2 g/L, 30 min at 37 °C, fluorescence, triplicate
T1 construct: purchased Abnova
T1 sequence (Q13547 whole entry): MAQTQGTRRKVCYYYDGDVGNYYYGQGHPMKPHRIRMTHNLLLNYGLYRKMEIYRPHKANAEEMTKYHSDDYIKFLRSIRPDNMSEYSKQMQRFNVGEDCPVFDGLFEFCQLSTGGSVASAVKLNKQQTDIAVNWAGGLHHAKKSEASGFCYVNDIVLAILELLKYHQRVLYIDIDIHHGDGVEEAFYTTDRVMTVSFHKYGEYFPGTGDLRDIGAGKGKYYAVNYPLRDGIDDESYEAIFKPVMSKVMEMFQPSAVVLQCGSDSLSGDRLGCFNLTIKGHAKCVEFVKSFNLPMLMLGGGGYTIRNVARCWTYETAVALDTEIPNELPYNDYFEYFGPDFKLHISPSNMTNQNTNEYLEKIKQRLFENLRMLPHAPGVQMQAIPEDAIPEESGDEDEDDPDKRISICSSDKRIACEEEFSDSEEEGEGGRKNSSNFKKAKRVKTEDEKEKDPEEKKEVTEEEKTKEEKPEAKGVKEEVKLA
Procedure: HDAC1 activity was determined using the HDAC1 inhibitor screening assay kit (Abnova, Taipei, Taiwan). The assay was performed according to the manufacture instruction manual. Briefly, the sample wells were added 140 µL assay buffer, 10 µL diluted HDAC1, and 10 µL peptide samples (0.05–2 g/L). The trichostatin A was set as the positive control, and the sample buffer was set as the negative control. We initiated the reactions by adding 10 µL of HDAC substrate to all the wells being used. Cover the plate with the plate cover and incubate on a shaker for 30 min at 37 °C. Remove the plate cover and add 40 µL of developer. Cover the plate with the plate cover and incubate for 15 min at room temperature. Remove the plate cover and read the fluorescence using an excitation wavelength of 340–360 nm and an emission wavelength of 440–465 nm. IC50 values were calculated using GraphPad Prism 8 software. Analyses were performed in triplicate with at least three replicates per concentration.

colon cancer cells = details: read-out: 50% inhibition; cited from earlier work
Description: Histone acetylation and deacetylation are important for the regulation of gene expression. The family of HDACs includes 18 members, and class I HDACs (HDAC 1, 2, 3, and 8) is considered to be the most important ones. […] For example, HDAC1 expression was increased in colorectal cancer and gastric cancer. In contrast, HDAC1 knockdown causes cell cycle arrest, reduces cancer cell viability, and induces cancer cell apoptosis. Moreover, pharmacological inhibitors ...

[1] = Caco-2, CCK-8, peptide 1 g/L, % of non-treated cells, mean ± SD
[2] = Caco-2, CCK-8, peptide 1 × 10^−1 g/L, % of non-treated cells, mean ± SD
[3] = Caco-2, CCK-8, peptide 2 g/L, % of non-treated cells, mean ± SD
[4] = Caco-2, CCK-8, peptide 5 × 10^−1 g/L, % of non-treated cells, mean ± SD

Substance	Viable Cells (%) (Caco-2 cells; [1])	Viable Cells (%) (Caco-2 cells; [2])	Viable Cells (%) (Caco-2 cells; [3])	Viable Cells (%) (Caco-2 cells; [4])	HDAC1 IC50 attained or not, in words (HDAC1)	IC50 (HDAC1)	Viable Cells (%) (Caco-2 cells; 24 h, 0.1 g/L)	Viable Cells (%) (Caco-2 cells; 24 h, 0.5 g/L)	Viable Cells (%) (Caco-2 cells; 24 h, 1 g/L)	Viable Cells (%) (Caco-2 cells; 24 h, 2 g/L)	inhibition of Caco-2 proliferation (Caco-2 cells; 1 g/L)	IC50 (colon cancer cells)
FGGGTLGHPW [quinoa peptide identified from QPH fraction < 5 kDa]	90.41 ± 0.69 ^d %	97.09 ± 0.74 ^c %	89.72 ± 0.60 ^c %	91.65 ± 0.43 ^c %	–	–	–	–	–	–	–	–
FHPFPR [FHPFPR]	–	–	–	–	can reach to IC50 value	1090 µM	90.04 ± 1.26 ^e %	75.46 ± 0.86 ^f %	51.41 ± 0.80 ^k %	50.82 ± 0.76 ^j %	more than 30%	–
GLESPNYPWPH [quinoa peptide identified from QPH fraction < 5 kDa]	97.40 ± 0.73 ^b %	99.75 ± 1.06 ^a %	97.70%	99.32 ± 1.05 ^a %	–	–	–	–	–	–	–	–
HGSLGFLPR [quinoa peptide identified from QPH fraction < 5 kDa]	96.81 ± 0.88 ^b %	97.35 ± 1.03 ^c %	95.80 ± 0.62 ^b %	96.91%	–	–	–	–	–	–	–	–
HYNPYFPGGA [HYNPYFPGGA]	–	–	–	–	can reach to IC50 value	1650 µM	93.69 ± 0.68 ^d %	82.34 ± 1.36 ^e %	67.44 ± 1.26 ^i %	67.10 ± 1.87 ^h %	more than 30%	–
INNIFRPF [quinoa peptide identified from QPH fraction < 5 kDa]	80.44 ± 0.68 ^f %	100.40 ± 1.29 ^a %	80.61 ± 0.41 ^e %	92.05 ± 1.07 ^c %	can reach to IC50 value	–	–	–	–	–	–	–
NIFRPF [quinoa peptide identified from QPH fraction < 5 kDa]	70.29 ± 0.56 ^h %	100.10 ± 1.03 ^a %	70.55 ± 2.01 ^g %	85.11 ± 0.66 ^d %	can reach to IC50 value	–	–	–	–	–	–	–
NSLSLPNFHPFPR [quinoa peptide identified from QPH fraction < 5 kDa]	86.55 ± 0.58 ^e %	100.79 ± 0.52 ^a %	83.56 ± 0.71 ^d %	92.78 ± 2.20 ^c %	–	–	–	–	–	–	–	–
NSWGPNWGDHG [quinoa peptide identified from QPH fraction < 5 kDa]	99.58 ± 1.08 ^a %	98.87%	97.92 ± 1.41 ^a %	98.60 ± 2.28 ^a %	–	–	–	–	–	–	–	–
NWFPLPR [NWFPLPR]	–	–	–	–	can reach to IC50 value	1370 µM	92.86 ± 1.10 ^d %	79.99 ± 0.86 ^e %	64.02 ± 1.39 ^j %	63.18 ± 0.83 ^i %	more than 30%	–
PNFHPFPR [PNFHPFPR]	–	–	–	–	can reach to IC50 value	–	90.46 ± 1.43 ^e %	77.26 ± 1.65 ^f %	65.32 ± 1.45 ^j %	61.67 ± 1.64 ^i %	more than 30%	–
SLPNFHPFPR [quinoa peptide identified from QPH fraction < 5 kDa]	78.51 ± 0.26 ^g %	97.79%	78.00 ± 0.80 ^f %	87.21 ± 0.32 ^d %	can reach to IC50 value	–	–	–	–	–	–	–
SVENWFPLPR [quinoa peptide identified from QPH fraction < 5 kDa]	92.14 ± 0.69 ^c %	99.43%	91.04 ± 1.53 ^c %	95.50 ± 3.60 ^b %	–	–	–	–	–	–	–	–
lunasin	–	–	–	–	–	–	–	–	–	–	–	61.7 µM
